Test system: p-388 (linfocitic leukemia)
Experiment: biological activity on P-388 leukemia cultures
Type: cell-based

Structure (SMILES): O=C1c2c(O)cc(O)cc2O[C@H](c2ccc(O)c(O)c2)[C@H]1O [taxifoline]
- anticarcinogenic activity on P-388 cultures (leufocytic leukemia): has shown anticarcinogenic activity

From patent US6444235B1, “Canelo products and methods of making and using same” (bioActiva microtechne, priority 1999, dated 2002)
